Holding throughout (format): in vivo, rat
The subject of assay [1] is MCAO/R model rats. The assay can be described thus: Neurological function evaluation (Longa 5-level score) in MCAO/R model rats. Particulars: for neurological function scores: 24 hours of reperfusion, Longa score; for neurological function scores compared with the NBP group / efficiency (vs NBP group): NBP 5 mg/kg; for neurological function scores compared with the NBP group: result in words; for efficiency (vs L-NBP group): L-NBP 2.5 mg/kg. The protocol:
(§1) • SHAM group: sham surgery group • Middle cerebral artery occlusion (MCAO) model group • Butylphthalide (NBP): 5 mg/kg • Levobutylphthalide (L-NBP): 2.5 mg/kg • NRB (Compound 1): 15 mg/kg (equivalent to a dose of 4.9 mg/kg of NBP through conversion) • Low dose of L-NRB (compound 2): 7.5 mg/kg (equivalent to a dose of 2.45 mg/kg of L-NBP through conversion) • High dose of L-NRB (compound 2): 15 mg/kg (equivalent to a dose of 4.9 mg/kg of L-NBP through conversion) • Aspirin group (ASP): 10 mg/kg 2. Administration Method
(§2) The rats in the sham surgery group and the MCAO model group were administered the same amount of normal saline by intraperitoneal administration for 5 consecutive days before modeling, and then the MCAO operation was performed.
(§3) The middle cerebral artery occlusion (MCAO) model was made by thread-occlusion method. The operation process was strictly conducted in aseptic mode. The main operation process was as follows: the rat was anesthetized by intraperitoneal injection of chloral hydrate, the common carotid artery (CCA), external carotid artery (ECA) and internal carotid artery (ICA) were separated, the common carotid artery was clamped with a microarterial clamp, and the branches of the external carotid artery were electrocoagulated with a bipolar electrocoagulation pen. The main trunk of the external carotid artery was separated and ligated at a distance of 3-4 mm from the bifurcation of the common carotid artery. The internal carotid artery was temporarily clamped with a micro artery clamp. A small incision into the external carotid artery was cut with an ophthalmic scissors, and a 4-0 monofilament nylon thread coated with methylpolysiloxane was inserted. A loose knot was made at the incision of the external carotid artery to block the blood reflux of the internal carotid artery. The micro artery clamp of the internal carotid artery was removed, and the nylon thread is gently pushed into the internal carotid artery to reach the anterior cerebral artery in the skull, to block the opening of the middle cerebral artery (MCA), and the insert depth is approximately 18-22 mm. The microarterial clamp of the common carotid artery was removed, the subcutaneous tissue and skin were sutured layer by layer after disinfection, and the nylon thread was slowly draw out at 2 hours after operation, and the reperfusion was conducted. In the sham surgery group, all operations were the same except that nylon thread was not inserted. The rectal temperature of all rats was maintained at 37° C. throughout the entire experimental process.
After 24 hours of reperfusion, all rats were evaluated for neurobehavioral scores using the Longa 5-level scoring method. Longa scoring standard: 0, normal, without neurological impairment; 1, left forelimb extension disorder, weakened function; 2, circling to the left, paralysis of the left forelimb and severe impairment of function, and the rat keeps twisting towards the damaged area after lifting the rat's tail; 3, when walking, tilt to the left; 4, limb paralysis, unconscious consciousness.

Assay [2] has as its system MCAO/R model rats. The assay can be described thus: Cerebral infarction area (TTC staining) in MCAO/R model rats. The conditions noted are these: for infarction area (%): 24 hours of reperfusion, TTC staining; for efficiency (vs L-NBP model group): L-NBP 2.5 mg/kg; for efficiency (vs NBP model group) / cerebral infarction area compared with the NBP group: NBP 5 mg/kg; for cerebral infarction area compared with the NBP group: result in words. The procedure:
as §1, §2, §3
After 24 hours of reperfusion, the cerebral infarction area was measured using tetrazolium red (TTC) staining. The rats were killed by cutting the neck, and the whole brain was quickly taken out. After being placed in the refrigerator at −20° C. for a short time and placed on the ice plate, and the olfactory bulb was removed. The forebrain was cut into six slices with a thickness of 2 mm along the coronal plane. The brain slices were placed in 1.5 mL of 2% TTC solution and incubated in dark for 30 minutes. Then the brain slices were fixed in 10% paraformaldehyde overnight, and then photographed for analysis. Use Image-J software to measure and calculate the volume of cerebral infarction.

Assay [3] relates to rats with middle cerebral artery occlusion (MCAO) model. The assay is described as follows: Pre-experiments: reduction of cerebral infarction area in MCAO model rats. The conditions noted are these: result in words; C compared with B, D compared among 1:2 conjugates. The source says:
Based on the effects of both butylphthalide and dexborneol on improving cerebral circulation and protecting cardio cerebral vessels, the inventor team of this application adopted progressive pre-experiments. First, butylphthalide and dexborneol were simply combined in a molar ratio 1:1 to form a composition.

The mark [4] stands for this setting: neurological function score, dose 7.5 mg/kg.
[5] abbreviates: neurological function score, dose 15 mg/kg.
Where [6] appears, read: cerebral infarction area, dose 7.5 mg/kg.
Where [7] appears, read: cerebral infarction area, dose 15 mg/kg.
The mark [8] stands for this setting: neurological function score, dose 2.5 mg/kg.

The structures appear in SMILES notation.

The compound `CCCCC1OC(=O)c2ccccc21` (racemic) [NBP, (R/S)-3-n-butyl-1(3H)-isobenzofuranone, reference compound] displayed a neurological function scores in the assay with MCAO/R model rats [1] (dose 5 mg/kg) of 2.3 ± 1.0. Also, the “inhibition rate (vs model group)” value in the assay on MCAO/R model rats [1] (neurological function score, dose 5 mg/kg) amounted to 32.4%. Also, in the assay on MCAO/R model rats [2] (dose 5 mg/kg), the “infarction inhibition rate (vs model group)” value turned out to be 34.2% and the “infarction area (%)” value stood at 19.4 ± 7.0 %.
For the compound `CCCC[C@H](OC(=O)CCC(=O)OC1CC2CCC1(C)C2(C)C)c1ccccc1C(=O)OC1CC2CCC1(C)C2(C)C` (stereo in doubt) [L-NRB], the results for the neurological function scores in the assay on MCAO/R model rats [1] (dose 7.5 mg/kg) and in the assay with MCAO/R model rats [1] (dose 15 mg/kg) were 1.4 ± 0.7**$ and 1.1 ± 0.4**$$&, respectively. The “neurological function scores compared with the NBP group” value is “significant reductions” with MCAO/R model rats [1] (dose 7.5 mg/kg, p<0.05) and “significant reductions” with MCAO/R model rats [1] (dose 15 mg/kg). Besides, the “inhibition rate (vs model group)” value worked out at 58.8% with MCAO/R model rats [1] (setting [4]) and 67.6% in the assay with MCAO/R model rats [1] (setting [5]). The “efficiency (vs L-NBP group)” value with MCAO/R model rats [1] (setting [4]) worked out at 22.2%; in the assay on MCAO/R model rats [1] (setting [5]), 38.9%. The “efficiency (vs NBP group)” value is given as 39.1% in the assay on MCAO/R model rats [1] (setting [4]) and 52.2% in the assay with MCAO/R model rats [1] (setting [5]). Further, in the assay with MCAO/R model rats [1] (neurological function score, dose 15 mg/kg, ASP 10 mg/kg), the “efficiency (vs ASP group)” value is 31.3%. Also, the “efficiency (vs L-NBP model group)” value with MCAO/R model rats [2] (setting [6]) came out at 29.1%; in the assay on MCAO/R model rats [2] (setting [7]), 58.2%. For the same compound, the “efficiency (vs NBP model group)” value is on record as 42.3% in the assay on MCAO/R model rats [2] (setting [6]) and 66.0% in the assay on MCAO/R model rats [2] (setting [7]). Further, the “Efficiency (vs ASP model group)” value with MCAO/R model rats [2] (cerebral infarction area, dose 15 mg/kg, ASP 10 mg/kg) was found to be 56.6%. The entries for the “infarction inhibition rate (vs model group)” value in the assay with MCAO/R model rats [2] (dose 7.5 mg/kg) and with MCAO/R model rats [2] (dose 15 mg/kg) were 62.0% and 77.6%, respectively. In addition, the “infarction area (%)” value in the assay with MCAO/R model rats [2] (dose 7.5 mg/kg) is on record as 11.2 ± 4.4**$ %; in the assay on MCAO/R model rats [2] (dose 15 mg/kg), 6.6 ± 3.5**$$&& %. The “cerebral infarction area compared with the NBP group” value in the assay on MCAO/R model rats [2] (dose 7.5 mg/kg, p<0.05) is on record as “significant reductions”; with MCAO/R model rats [2] (dose 15 mg/kg), “significant reductions”.
Take `CC(=O)Oc1ccccc1C(=O)O` [ASP, Aspirin, reference compound]: the neurological function scores with MCAO/R model rats [1] (dose 10 mg/kg) turned out to be 1.6 ± 0.5. For the same compound, the “inhibition rate (vs model group)” value in the assay on MCAO/R model rats [1] (neurological function score, dose 10 mg/kg) came to 52.9%. In addition, in the assay on MCAO/R model rats [2] (dose 10 mg/kg), the “infarction inhibition rate (vs model group)” value is reported as 48.5% and the “infarction area (%)” value is 15.2 ± 7.0 %.
As for `CCCC[C@@H]1OC(=O)c2ccccc21` [L-NBP, Levobutylphthalide, reference compound], the neurological function scores in the assay on MCAO/R model rats [1] (dose 2.5 mg/kg) is on record as 1.8 ± 0.6. In the assay on MCAO/R model rats [1] (setting [8]), the “inhibition rate (vs model group)” value worked out at 47.1% and the “efficiency (vs NBP group)” value was determined as 21.7%. In addition, the “efficiency (vs NBP model group)” value with MCAO/R model rats [2] (cerebral infarction area, dose 2.5 mg/kg) turned out to be 18.6%. Also, in the assay on MCAO/R model rats [2] (dose 2.5 mg/kg), the “infarction inhibition rate (vs model group)” value stood at 46.4% and the “infarction area (%)” value turned out to be 15.8 ± 6.7 %.
As for `CCCCC(OC(=O)CCC(=O)O[C@@H]1C[C@@H]2CC[C@@]1(C)C2(C)C)c1ccccc1C(=O)O[C@@H]1C[C@@H]2CC[C@@]1(C)C2(C)C` (some centres unmarked) [NRB], in the assay with MCAO/R model rats [1] (dose 15 mg/kg), the neurological function scores is on record as 1.3 ± 0.5**$ and the “neurological function scores compared with the NBP group” value is reported as “significant reductions”. In the assay on MCAO/R model rats [1] (setting [5]), the “inhibition rate (vs model group)” value was determined as 61.8% and the “efficiency (vs NBP group)” value was determined as 43.5%. In addition, the “efficiency (vs NBP model group)” value with MCAO/R model rats [2] (setting [7]) is 44.8%. Also, in the assay on MCAO/R model rats [2] (dose 15 mg/kg), the “infarction inhibition rate (vs model group)” value is recorded as 63.7%, the “infarction area (%)” value is listed as 10.7 ± 7.9**$ % and the “cerebral infarction area compared with the NBP group” value is recorded as “significant reductions”.
`CCCCC(OC(C)=O)c1ccccc1C(=O)O[C@@H]1C[C@@H]2CC[C@@]1(C)C2(C)C` (some centres unmarked) [formula B]: in assay [3], the “activity (pre-experiments, comparison between conjugates)” value was “only slightly improved”.
Turning to `CCCCC(OC(=O)CCC(=O)O[C@@H]1C[C@@H]2CC[C@@]1(C)C2(C)C)c1ccccc1C(=O)O[C@@H]1C[C@@H]2CC[C@@]1(C)C2(C)C` (some centres unmarked) [formula C], the “activity (pre-experiments, comparison between conjugates)” value in assay [3] is “significantly better”.
Same read-out and setting: then `CCCC[C@H](OC(=O)CCC(=O)O[C@@H]1C[C@@H]2CC[C@@]1(C)C2(C)C)c1ccccc1C(=O)O[C@@H]1C[C@@H]2CC[C@@]1(C)C2(C)C` [formula D], with “superior”.

These data come from patent US12403116B2, “Hydroxypentyl benzoic acid diester compound, and preparation method and pharmaceutical application thereof” (CHINESE ACADEMY OF MEDICAL SCIENCES INSTITUTE OF MEDICINAL …, priority 2022, dated 2025).
